Experimental data taken from the NIST ThermoML archive (doi:10.1016/j.jct.2011.08.017).
“And” between values parts separate entries of the source, which are not always exact repeats. Equal values may be shown once.

How the values were obtained:
[1] = for Normal melting temperature: DTA
[2] = Molar enthalpy of transition or fusion; conditions: Crystal; DSC

Cn1cnc(C#N)c1C#N [1-methyl-1H-imidazole-4,5-dicarbonitrile]
[1]
Conditions | vapor or sublimation pressure [kPa]
337.86 K, Crystal, Closed cell (Static) method | 0.00034
339.38 K, Crystal, Closed cell (Static) method | 0.00039
340.86 K, Crystal, Closed cell (Static) method | 0.00046
342.35 K, Crystal, Closed cell (Static) method | 0.00053
343.84 K, Crystal, Closed cell (Static) method | 0.00061
345.33 K, Crystal, Closed cell (Static) method | 0.0007
346.81 K, Crystal, Closed cell (Static) method | 0.00082
348.31 K, Crystal, Closed cell (Static) method | 0.00094
349.78 K, Crystal, Closed cell (Static) method | 0.00107
351.29 K, Crystal, Closed cell (Static) method | 0.00124
352.76 K, Crystal, Closed cell (Static) method | 0.00142
354.26 K, Crystal, Closed cell (Static) method | 0.00163
355.73 K, Crystal, Closed cell (Static) method | 0.00186
355.76 K, Metastable liquid, Closed cell (Static) method | 0.00198
357.23 K, Crystal, Closed cell (Static) method | 0.00212
357.23 K, Metastable liquid, Closed cell (Static) method | 0.00221
358.72 K, Crystal, Closed cell (Static) method | 0.00242
358.77 K, Metastable liquid, Closed cell (Static) method | 0.00249
360.71 K, Metastable liquid, Closed cell (Static) method | 0.00284
362.59 K, Closed cell (Static) method, Liquid | 0.0033
364.68 K, Closed cell (Static) method, Liquid | 0.00381
366.64 K, Closed cell (Static) method, Liquid | 0.0044
368.64 K, Closed cell (Static) method, Liquid | 0.00506
370.6 K, Closed cell (Static) method, Liquid | 0.00584
372.61 K, Closed cell (Static) method, Liquid | 0.0067
374.56 K, Closed cell (Static) method, Liquid | 0.00765
376.58 K, Closed cell (Static) method, Liquid | 0.00875
378.53 K, Closed cell (Static) method, Liquid | 0.01
380.52 K, Closed cell (Static) method, Liquid | 0.01138
382.49 K, Closed cell (Static) method, Liquid | 0.01298
384.5 K, Closed cell (Static) method, Liquid | 0.01474
386.44 K, Closed cell (Static) method, Liquid | 0.01668
388.45 K, Closed cell (Static) method, Liquid | 0.01889
390.43 K, Closed cell (Static) method, Liquid | 0.02143
392.4 K, Closed cell (Static) method, Liquid | 0.0241
394.36 K, Closed cell (Static) method, Liquid | 0.02715
396.35 K, Closed cell (Static) method, Liquid | 0.0304
398.31 K, Closed cell (Static) method, Liquid | 0.03419
400.31 K, Closed cell (Static) method, Liquid | 0.03815
402.27 K, Closed cell (Static) method, Liquid | 0.04273
404.27 K, Closed cell (Static) method, Liquid | 0.04766
406.23 K, Closed cell (Static) method, Liquid | 0.05325

Conditions | Normal melting temperature [°C]
[1], Crystal | 87.1

Conditions | Molar enthalpy of transition or fusion [kcal/mol]
[2] | 3.54

Cn1ccnc1 [1-methylimidazole]
[1]
Conditions | vapor or sublimation pressure [kPa]
255.52 K, Crystal, Closed cell (Static) method | 0.00122
256.47 K, Metastable liquid, Closed cell (Static) method | 0.00184
256.5 K, Crystal, Closed cell (Static) method | 0.00139
257.48 K, Crystal, Closed cell (Static) method | 0.00157
257.48 K, Metastable liquid, Closed cell (Static) method | 0.00204
258.55 K, Metastable liquid, Closed cell (Static) method | 0.00226
258.57 K, Crystal, Closed cell (Static) method | 0.00177
259.5 K, Metastable liquid, Closed cell (Static) method | 0.00249
259.53 K, Crystal, Closed cell (Static) method | 0.00201
260.46 K, Metastable liquid, Closed cell (Static) method | 0.00273
260.48 K, Crystal, Closed cell (Static) method | 0.00225
261.42 K, Metastable liquid, Closed cell (Static) method | 0.00301
261.45 K, Crystal, Closed cell (Static) method | 0.00255
262.38 K, Metastable liquid, Closed cell (Static) method | 0.0033
262.41 K, Crystal, Closed cell (Static) method | 0.00277
263.36 K, Metastable liquid, Closed cell (Static) method | 0.00362
263.37 K, Crystal, Closed cell (Static) method | 0.00317
264.36 K, Crystal, Closed cell (Static) method | 0.00356
265.16 K, Metastable liquid, Closed cell (Static) method | 0.00425
265.35 K, Crystal, Closed cell (Static) method | 0.004
267.28 K, Metastable liquid, Closed cell (Static) method | 0.00515
269.27 K, Metastable liquid, Closed cell (Static) method | 0.00618
271.23 K, Closed cell (Static) method, Liquid | 0.00739
273.22 K, Closed cell (Static) method, Liquid | 0.00866
275.16 K, Closed cell (Static) method, Liquid | 0.01042
277.18 K, Closed cell (Static) method, Liquid | 0.01215
281.14 K, Closed cell (Static) method, Liquid | 0.01675
285.09 K, Closed cell (Static) method, Liquid | 0.02306
287.07 K, Closed cell (Static) method, Liquid | 0.02725
289.06 K, Closed cell (Static) method, Liquid | 0.03146
291.04 K, Closed cell (Static) method, Liquid | 0.03655
293.04 K, Closed cell (Static) method, Liquid | 0.04224
295.03 K, Closed cell (Static) method, Liquid | 0.049
297.03 K, Closed cell (Static) method, Liquid | 0.05608
298.98 K, Closed cell (Static) method, Liquid | 0.06498
300.98 K, Closed cell (Static) method, Liquid | 0.07451
302.96 K, Closed cell (Static) method, Liquid | 0.0852
304.98 K, Closed cell (Static) method, Liquid | 0.09635

Conditions | Normal melting temperature [°C]
[1], Crystal | -4.5

Conditions | Molar enthalpy of transition or fusion [kcal/mol]
[2] | 2.94

c1c[nH]cn1 [1H-imidazole]
[1]
Conditions | vapor or sublimation pressure [kPa]
303.99 K, Crystal, Closed cell (Static) method | 0.00058
306.97 K, Crystal, Closed cell (Static) method | 0.00079
309.99 K, Crystal, Closed cell (Static) method | 0.00108
312.98 K, Crystal, Closed cell (Static) method | 0.00145
315.94 K, Crystal, Closed cell (Static) method | 0.00195
318.92 K, Crystal, Closed cell (Static) method | 0.00263
321.97 K, Crystal, Closed cell (Static) method | 0.0035
324.96 K, Crystal, Closed cell (Static) method | 0.00469
327.95 K, Crystal, Closed cell (Static) method | 0.00621
330.92 K, Crystal, Closed cell (Static) method | 0.00819
333.9 K, Crystal, Closed cell (Static) method | 0.01063
333.9 K, Metastable liquid, Closed cell (Static) method | 0.01485
336.88 K, Crystal, Closed cell (Static) method | 0.01377
336.89 K, Metastable liquid, Closed cell (Static) method | 0.01859
339.86 K, Crystal, Closed cell (Static) method | 0.01782
339.86 K, Metastable liquid, Closed cell (Static) method | 0.02311
342.84 K, Crystal, Closed cell (Static) method | 0.02289
342.84 K, Metastable liquid, Closed cell (Static) method | 0.02848
345.81 K, Metastable liquid, Closed cell (Static) method | 0.03509
345.83 K, Crystal, Closed cell (Static) method | 0.02923
348.8 K, Crystal, Closed cell (Static) method | 0.03701
348.8 K, Metastable liquid, Closed cell (Static) method | 0.04297
351.75 K, Metastable liquid, Closed cell (Static) method | 0.05222
351.77 K, Crystal, Closed cell (Static) method | 0.04693
354.75 K, Crystal, Closed cell (Static) method | 0.0592
354.76 K, Metastable liquid, Closed cell (Static) method | 0.06354
357.72 K, Crystal, Closed cell (Static) method | 0.07394
357.72 K, Metastable liquid, Closed cell (Static) method | 0.07682
360.69 K, Metastable liquid, Closed cell (Static) method | 0.09288
363.67 K, Closed cell (Static) method, Liquid | 0.1112
366.66 K, Closed cell (Static) method, Liquid | 0.1336
369.63 K, Closed cell (Static) method, Liquid | 0.1596
372.6 K, Closed cell (Static) method, Liquid | 0.1912
375.56 K, Closed cell (Static) method, Liquid | 0.2249
378.51 K, Closed cell (Static) method, Liquid | 0.2655
381.51 K, Closed cell (Static) method, Liquid | 0.3134
384.48 K, Closed cell (Static) method, Liquid | 0.3688

Conditions | Normal melting temperature [°C]
[1], Crystal | 86.2

Conditions | Molar enthalpy of transition or fusion [kcal/mol]
[2] | 3.13

Cn1cnc(Cl)c1Cl [4,5-dichloro-1-methyl-1H-imidazole]
[1]
Conditions | vapor or sublimation pressure [kPa]
288.03 K, Crystal, Closed cell (Static) method | 0.00048
290.06 K, Crystal, Closed cell (Static) method | 0.0006
292.08 K, Crystal, Closed cell (Static) method | 0.00076
294.06 K, Crystal, Closed cell (Static) method | 0.00096
296.06 K, Crystal, Closed cell (Static) method | 0.0012
298.04 K, Crystal, Closed cell (Static) method | 0.00149
300.05 K, Crystal, Closed cell (Static) method | 0.00185
302.01 K, Crystal, Closed cell (Static) method | 0.00231
303.99 K, Crystal, Closed cell (Static) method | 0.00286
306.02 K, Crystal, Closed cell (Static) method | 0.00352
307.96 K, Crystal, Closed cell (Static) method | 0.0043
309.97 K, Crystal, Closed cell (Static) method | 0.00527
311.98 K, Crystal, Closed cell (Static) method | 0.00646
313.95 K, Crystal, Closed cell (Static) method | 0.00782
315.93 K, Crystal, Closed cell (Static) method | 0.00957
317.91 K, Crystal, Closed cell (Static) method | 0.01164
319.99 K, Crystal, Closed cell (Static) method | 0.01413
322 K, Crystal, Closed cell (Static) method | 0.01693
323.97 K, Crystal, Closed cell (Static) method | 0.02049
325.97 K, Crystal, Closed cell (Static) method | 0.02463
329.93 K, Metastable liquid, Closed cell (Static) method | 0.03434
331.93 K, Closed cell (Static) method, Liquid | 0.03936
333.9 K, Closed cell (Static) method, Liquid | 0.04506
335.89 K, Closed cell (Static) method, Liquid | 0.05151
337.88 K, Closed cell (Static) method, Liquid | 0.05882
339.87 K, Closed cell (Static) method, Liquid | 0.06701
341.86 K, Closed cell (Static) method, Liquid | 0.07636
343.84 K, Closed cell (Static) method, Liquid | 0.08631
345.82 K, Closed cell (Static) method, Liquid | 0.09809
347.8 K, Closed cell (Static) method, Liquid | 0.1106
349.78 K, Closed cell (Static) method, Liquid | 0.1248

Conditions | Normal melting temperature [°C]
[1], Crystal | 57.0

Conditions | Molar enthalpy of transition or fusion [kcal/mol]
[2] | 4.06

Clc1nc[nH]c1Cl [4,5-dichloroimidazole]
[1], Crystal, Closed cell (Static) method
Conditions | vapor or sublimation pressure
337.91 K | 0.00048 kPa
339.87 K | 0.00059 kPa
341.87 K | 0.00072 kPa
341.88 K | 0.00071 kPa
343.83 K | 0.00086 kPa
345.84 K | 0.00104 kPa
345.85 K | 0.00104 kPa
347.81 K | 0.00125 kPa
349.81 K | 0.00148 kPa and 0.00151 kPa
351.78 K | 0.0018 kPa
355.75 K | 0.00258 kPa
357.73 K | 0.00306 kPa
359.72 K | 0.00366 kPa
361.71 K | 0.00434 kPa
363.69 K | 0.00513 kPa
365.67 K | 0.00607 kPa
367.66 K | 0.00722 kPa
369.64 K | 0.00841 kPa
371.62 K | 0.00998 kPa
373.6 K | 0.01172 kPa
375.6 K | 0.01368 kPa
377.56 K | 0.01597 kPa
379.54 K | 0.0184 kPa
381.52 K | 0.02175 kPa
383.45 K | 0.02487 kPa
385.49 K | 0.02923 kPa
387.38 K | 0.03334 kPa
389.45 K | 0.03896 kPa
391.33 K | 0.04433 kPa
393.4 K | 0.05168 kPa
395.37 K | 0.0589 kPa

Conditions | Normal melting temperature [°C]
[1], Crystal | 183.6

Conditions | Molar enthalpy of transition or fusion [kcal/mol]
[2] | 4.21

N#Cc1nc[nH]c1C#N [4,5-dicyanoimidazole]
[1], Crystal, Calculated from knudsen effusion weight loss
Conditions | vapor or sublimation pressure
383.16 K | 0.000153 kPa and 0.00015 kPa
385.16 K | 0.000182 kPa and 0.000184 kPa and 0.000183 kPa
387.12 K | 0.000223 kPa and 0.000222 kPa
389.16 K | 0.000267 kPa and 0.000264 kPa
391.16 K | 0.000325 kPa
393.12 K | 0.000386 kPa and 0.000383 kPa and 0.000389 kPa
395.16 K | 0.000462 kPa and 0.000464 kPa
397.16 K | 0.000556 kPa
399.14 K | 0.000668 kPa and 0.000664 kPa and 0.000666 kPa
401.16 K | 0.000791 kPa and 0.000782 kPa and 0.000796 kPa
403.15 K | 0.000954 kPa and 0.000931 kPa and 0.000932 kPa

Conditions | Normal melting temperature [°C]
[1], Crystal | 176

Conditions | Molar enthalpy of transition or fusion [kcal/mol]
[2] | 5.4
